Compound: COc1cc(Nc2c(C#N)cnc3cc(OCCCN4CCN(C)CC4)c(OC)cc23)c(Cl)cc1Cl [Bosutinib] + NC(=O)Nc1cc(-c2cccc(F)c2)sc1C(=O)N[C@H]1CCCNC1 [AZD7762] (partner 0.2 µM)
Test: relative viability (nuclei count vs DMSO), 5 days (fraction); higher = more cells survive
Outline: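 Lung cancer cell lines were seeded in 1536-well plates and dosed by pin tool the next day, with either a single drug or a fixed anchor-drug dose combined with five library-drug doses (not always all listed) spaced in √10 steps. Five days later, one step fixed the cells and stained their nuclei (final 0.05% Triton X-100, 1% formaldehyde, 1 ug/ml Hoechst), and nuclei were counted on 4× images. Relative viability is the nuclei count in treated wells divided by the count in vehicle wells, and each value is the median of duplicate plates.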

Cell Line | relative viability (first compound 0.01 µM) | relative viability (first compound 0.03162 µM) | relative viability (first compound 0.1 µM) | relative viability (first compound 1 µM)
201T | 0.581 | 0.654 | 0.603 | 0.62
A-427 | 0.777 | 0.691 | 0.661 | 0.643
ABC-1 | – | 0.873 | 0.915 | 0.677
BEN | 0.608 | 0.697 | 0.675 | 0.658
CAL-12T | 0.576 | 0.529 | 0.596 | 0.515
ChaGo-K-1 | 0.919 | 0.89 | 0.923 | 0.852
EKVX | 0.441 | 0.751 | 0.735 | 0.656
EMC-BAC-2 | 1.18 | 1.11 | 1.13 | 1.09
EPLC-272H | 0.225 | 0.244 | 0.18 | 0.232
H3255 | 0.846 | 1.02 | 0.949 | 0.517
HARA | 0.304 | 0.308 | 0.297 | 0.644
HCC-15 | 1.23 | 1.12 | 1.23 | 1.23
HCC-44 | 1.02 | 1.01 | 1.01 | 1.04
HCC-78 | 0.655 | 0.788 | 0.781 | 0.584
HCC-366 | 0.34 | 0.253 | 0.205 | 0.073
HCC-827 | 0.219 | 0.21 | 0.189 | 0.168
HOP-62 | 0.497 | 0.619 | 0.721 | 0.4
LC-2-ad | 0.88 | 0.818 | 0.846 | 0.755
LCLC-97TM1 | 0.31 | 0.286 | 0.315 | 0.191
LCLC-103H | 0.854 | 0.74 | 0.827 | 0.771

Cell Line | relative viability (first compound 0.01 µM) | relative viability (first compound 0.03162 µM) | relative viability (first compound 0.1 µM) | relative viability (first compound 1 µM)
LK-2 | 0.387 | 0.417 | 0.461 | 0.2
LOU-NH91 | 0.78 | 0.757 | 0.704 | 0.679
LU99A | 0.376 | 0.362 | 0.354 | 0.287
LXF-289 | 1.17 | 1.14 | 1.14 | 1.02
NCI-H23 | 0.356 | 0.205 | 0.202 | 0.164
NCI-H322M | 0.609 | 0.534 | 0.546 | 0.52
NCI-H358 | 0.638 | 0.547 | 0.556 | 0.359
NCI-H441 | 1.3 | 1.02 | 1.05 | 1.09
NCI-H460 | 0.645 | 0.576 | 0.482 | 0.415
NCI-H522 | 0.794 | 0.714 | 0.698 | 0.897
NCI-H596 | 1.08 | 1.07 | 1.08 | 0.918
NCI-H647 | 0.608 | 0.516 | 0.421 | 0.252
NCI-H650 | 0.908 | 0.992 | 1.04 | 0.981
NCI-H727 | 0.549 | 0.59 | 0.641 | 0.451
NCI-H838 | 0.994 | 0.914 | 0.892 | 0.807
NCI-H1355 | 0.801 | 0.707 | 0.707 | 0.534
NCI-H1395 | 0.405 | 0.425 | 0.387 | 0.38
NCI-H1437 | 1.08 | 1.07 | 1.13 | 0.922
NCI-H1651 | 0.473 | 0.515 | 0.443 | 0.441
NCI-H1666 | 0.719 | 0.836 | 0.832 | 0.788

Cell Line | relative viability (first compound 0.01 µM) | relative viability (first compound 0.03162 µM) | relative viability (first compound 0.1 µM) | relative viability (first compound 1 µM)
NCI-H1703 | 0.12 | 0.132 | 0.124 | 0.133
NCI-H1734 | 0.632 | 0.512 | 0.512 | 0.369
NCI-H1755 | 0.412 | 0.462 | 0.446 | 0.418
NCI-H1792 | 0.641 | 0.543 | 0.778 | 0.273
NCI-H1793 | 0.497 | 0.39 | 0.366 | 0.175
NCI-H1915 | 0.718 | 0.647 | 0.654 | 0.572
NCI-H1944 | 0.558 | 0.533 | 0.476 | 0.394
NCI-H1975 | 0.742 | 0.711 | 0.642 | 0.559
NCI-H1993 | 0.759 | 0.778 | 0.847 | 0.672
NCI-H2085 | 1.1 | 0.903 | 0.939 | 0.65
NCI-H2087 | 1.54 | 1.13 | 1.31 | 1.24
NCI-H2126 | 0.982 | 1.04 | 1.03 | 1.04
NCI-H2170 | 0.922 | 0.924 | 0.819 | 0.801
NCI-H2347 | 0.748 | 0.725 | 0.777 | 0.487
NCI-H2405 | 0.873 | 0.739 | 0.701 | 0.598
NCI-H3122 | 1.01 | 0.884 | 0.947 | 0.975
PC-3 [JPC-3] | 0.787 | 0.738 | 0.689 | 0.641
PC-14 | 0.351 | 0.284 | 0.287 | 0.193
RERF-LC-KJ | 0.979 | 0.982 | 1.07 | 0.877
SW 900 | 0.624 | 0.589 | 0.581 | 0.482
